{
  "source": "paper PMC12780224",
  "about": "(Nature Communications, 2025)",
  "key": {"[1]": {"biological_target": "T1, RdSqgA (Roseobacter denitrificans, UniProt Q167F5)", "T1 sequence (Q167F5 1-366)": "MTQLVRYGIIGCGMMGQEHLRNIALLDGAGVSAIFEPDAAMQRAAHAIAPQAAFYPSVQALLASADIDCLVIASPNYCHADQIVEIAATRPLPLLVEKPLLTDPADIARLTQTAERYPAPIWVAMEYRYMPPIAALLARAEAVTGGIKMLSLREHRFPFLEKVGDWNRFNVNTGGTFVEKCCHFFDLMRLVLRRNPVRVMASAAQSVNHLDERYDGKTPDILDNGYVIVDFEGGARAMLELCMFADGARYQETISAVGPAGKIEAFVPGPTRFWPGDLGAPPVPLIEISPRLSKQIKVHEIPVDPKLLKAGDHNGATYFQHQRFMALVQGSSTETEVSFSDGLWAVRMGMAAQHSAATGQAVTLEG", "assay": "LC-MS of SQ formation", "assay_type": "biochemical", "conditions": "200 mM NH4HCO3 pH 7.0, room temperature overnight"}, "[2]": {"biological_target": "T2, PpSqgA (Porphyridium purpureum, UniProt A0A5J4YS60)", "T2 sequence (A0A5J4YS60 1-369)": "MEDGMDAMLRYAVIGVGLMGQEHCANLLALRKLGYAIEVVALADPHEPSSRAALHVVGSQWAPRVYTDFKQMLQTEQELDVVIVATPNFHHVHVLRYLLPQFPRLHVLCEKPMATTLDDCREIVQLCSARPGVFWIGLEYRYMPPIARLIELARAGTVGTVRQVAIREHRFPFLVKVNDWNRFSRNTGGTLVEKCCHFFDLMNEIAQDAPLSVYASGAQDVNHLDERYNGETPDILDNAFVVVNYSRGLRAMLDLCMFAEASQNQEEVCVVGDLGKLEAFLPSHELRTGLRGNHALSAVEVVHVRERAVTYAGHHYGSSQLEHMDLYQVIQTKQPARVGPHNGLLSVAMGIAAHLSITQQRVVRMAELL", "assay": "sulfoquinovosidase activity assay", "assay_type": "biochemical", "conditions": "details only in supplement"}, "[3]": {"biological_target": "T3, CtSqgA (Chaetoceros tenuissimus, UniProt A0AAD3HCU0)", "T3 sequence (A0AAD3HCU0 1-457)": "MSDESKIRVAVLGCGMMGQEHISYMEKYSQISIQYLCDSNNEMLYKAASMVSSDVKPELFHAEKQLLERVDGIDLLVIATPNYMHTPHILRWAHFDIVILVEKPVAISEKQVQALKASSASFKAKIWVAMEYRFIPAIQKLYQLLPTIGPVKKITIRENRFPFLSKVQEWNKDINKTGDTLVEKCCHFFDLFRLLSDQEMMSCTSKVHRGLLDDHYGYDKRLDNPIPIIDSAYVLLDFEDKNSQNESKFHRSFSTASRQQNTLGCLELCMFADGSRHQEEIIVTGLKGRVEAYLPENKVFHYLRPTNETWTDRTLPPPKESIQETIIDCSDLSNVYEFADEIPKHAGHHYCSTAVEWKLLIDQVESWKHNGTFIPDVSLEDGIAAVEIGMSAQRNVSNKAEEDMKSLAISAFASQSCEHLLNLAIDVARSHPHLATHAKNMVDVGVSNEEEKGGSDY", "assay": "sulfoquinovosidase activity assay", "assay_type": "biochemical", "conditions": "details only in supplement"}, "[4]": {"substrate": "O=[N+]([O-])c1ccc(O[C@H]2O[C@H](CS(=O)(=O)O)[C@@H](O)[C@H](O)[C@H]2O)cc1", "assay": "purified protein", "conditions": "10 mM phosphate buffer pH 7.5 (general assay buffer)"}},
  "data": [
    {"molecule": "NC(=O)c1ccc[n+]([C@@H]2O[C@H](COP(=O)(O)OP(=O)(O)OC[C@H]3O[C@@H](n4cnc5c(N)ncnc54)[C@H](O)[C@@H]3O)[C@@H](O)[C@H]2O)c1", "note": "[NAD^+]", "values": [
      {"measurement": "LC-MS of SQ formation", "setting": "[1]; 20 uM SQGro", "result": "RdSqgA, revealed it to be an NAD^+-dependent sulfoquinovosidase"}
    ]},
    {"molecule": "O=S(=O)(O)C[C@H]1O[C@H](OC[C@H](O)CO)[C@H](O)[C@@H](O)[C@@H]1O", "note": "[SQGro]", "values": [
      {"measurement": "LC-MS of SQ formation", "setting": "[1]; 10 mM NAD+", "result": "NAD^+-dependent sulfoquinovosidase that acts on SQGro to form SQ"},
      {"measurement": "sulfoquinovosidase activity assay (SQ release)", "setting": "[2]", "result": "These homologs have sulfoquinovosidase activity, allowing the liberation of SQ"},
      {"measurement": "sulfoquinovosidase activity assay (SQ release)", "setting": "[3]", "result": "These homologs have sulfoquinovosidase activity, allowing the liberation of SQ"}
    ]},
    {"molecule": "AmSqgH (Alteromonas macleodii ATCC 27126) (protein) MSNAFCVNEPEWNDIKAADITEQPFLSDDKTLIVPTQYGELSLSISQFGLRIQSNVNAADDFGMLTQAPERLSLVLSGDQSHSTLAAGDYRLEVFAAPLHFKLYKNDVLVQQSATDGHFVRQHRLPPFAKTDKGWLLSLELSYDEAVYGLGEKWGKLDKRGQLIRSYNHDALGVNAEKSYKNTPYAWSPEGWNLFVHTPAPVTHGVGYALWSQRAYVCLVEDNVLDMFLFHQDSPAKCLQTYSELTGFAPTPPTWSLGVILSKAYYKDADELLAVAREVREKNMPCDVITLDGRAWQDTDTRFAFEWDPKRYADPQPVIDELKALGFKICVWEYPMISVKNPLYKKAADKGWLIKDKRTGEAYRYEWDLSPFGEVLTPLPDSGILDFTHPEAYEFWKTSHKPLFDLGIDMIKADFGEQLEDDNMLSYSGDSGNRLHNVYSMLYNRCVYEAADAYCKTGPFLFSRSAWTGSQRYPSQWGGDPQADWHGLAASIRGSLSWGMSGGPFFATDIGGFYKDTRDAELYVRWAQASVFSAHMRLHGIGPREPWSYGDAASNAVFEALKLRYKLIPYLKETAEKASQTGLPVQRAMALAFPEQPLSHGFEQQFMCGDDLLVVPCVVPGGKIKYYLPKGKWIRFGTEEVVQGEQYREEILALNDVAVFIQKGSRIVMGPDVQHTDMDMSNTTHWPA", "values": [
      {"measurement": "Km", "setting": "[4]", "result": "13.0 ± 2.2", "unit": "mM"},
      {"measurement": "kcat", "setting": "[4]", "result": "119 ± 19", "unit": "s⁻¹"}
    ]}
  ]
}
